Where a name gives a salt, the structure may show the parent alone.
Tests used:
[1] = biological target: PDE4; experiment: Inhibition of PDE isoenzymes: PDE4 (cAMP-specific), cytosol of human polymorphonuclear leukocytes, cAMP as substrate; assay type: biochemical; details: cytosol of human PMNL; 0.5 μM cAMP; motapizone (1 μM) present; pH 7.4, 37° C., 15 min
[2] = biological target: T1, PDE3 (Homo sapiens, UniProt Q14432); experiment: Inhibition of PDE isoenzymes: PDE3 (cGMP-inhibited), homogenates of human blood platelets; assay type: biochemical; details: cAMP or cGMP as substrate, 0.5 μM, pH 7.4, 37° C., 15 min; for IC50: read-out: PDE3 -log IC50 (converted)
T1 construct: were investigated in homogenates of human blood platelets; from tissue; host or cells: homogenates of human blood platelets
T1 sequence (Q14432 whole entry): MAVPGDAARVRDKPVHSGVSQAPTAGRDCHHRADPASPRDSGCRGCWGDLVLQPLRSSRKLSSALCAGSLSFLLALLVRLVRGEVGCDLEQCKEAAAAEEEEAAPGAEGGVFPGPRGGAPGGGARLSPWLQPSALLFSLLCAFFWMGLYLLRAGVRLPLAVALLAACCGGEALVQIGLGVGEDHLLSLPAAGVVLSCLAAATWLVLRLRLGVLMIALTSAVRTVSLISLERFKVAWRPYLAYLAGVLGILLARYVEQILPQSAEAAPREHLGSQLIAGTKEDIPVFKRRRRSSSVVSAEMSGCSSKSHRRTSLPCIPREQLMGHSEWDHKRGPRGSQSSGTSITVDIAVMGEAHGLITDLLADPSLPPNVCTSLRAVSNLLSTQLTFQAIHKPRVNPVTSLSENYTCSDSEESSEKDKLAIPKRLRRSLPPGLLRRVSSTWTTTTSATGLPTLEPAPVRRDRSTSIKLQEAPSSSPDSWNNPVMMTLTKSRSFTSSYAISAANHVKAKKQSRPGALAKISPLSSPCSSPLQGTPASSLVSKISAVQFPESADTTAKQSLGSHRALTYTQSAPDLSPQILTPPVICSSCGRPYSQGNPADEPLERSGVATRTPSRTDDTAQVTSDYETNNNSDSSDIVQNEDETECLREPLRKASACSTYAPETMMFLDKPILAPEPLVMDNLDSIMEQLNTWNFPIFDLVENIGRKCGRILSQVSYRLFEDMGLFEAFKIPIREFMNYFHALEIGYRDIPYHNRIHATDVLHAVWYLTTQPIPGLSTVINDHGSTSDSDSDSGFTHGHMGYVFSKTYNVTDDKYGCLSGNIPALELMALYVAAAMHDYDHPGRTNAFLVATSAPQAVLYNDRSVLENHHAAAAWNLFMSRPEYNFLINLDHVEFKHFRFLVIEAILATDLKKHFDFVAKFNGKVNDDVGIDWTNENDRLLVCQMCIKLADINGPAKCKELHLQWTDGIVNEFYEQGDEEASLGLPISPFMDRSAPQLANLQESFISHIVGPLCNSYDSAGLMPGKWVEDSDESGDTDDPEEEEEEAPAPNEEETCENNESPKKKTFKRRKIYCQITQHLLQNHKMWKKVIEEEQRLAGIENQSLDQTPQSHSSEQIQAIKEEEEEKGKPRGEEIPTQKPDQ

## CCOc1cc2c(cc1OC)C(c1ccc(-c3nn[nH]n3)cc1)=N[C@H]1CCN(C)C[C@@H]21 (single isomer, unassigned) [Compound 18, (-)-cis-9-Ethoxy-8-methoxy-2-methyl-6-[4-(1H- and 2H-2-tetrazol-5-yl)-phenyl]-1,2,3,4,4a,10b-hexahydrobenzo[c][1.6]naphthyridine]
[1]
  PDE4 -log IC50: 7.81 mol/l
[2]
  IC50: 0.145 µM

## COc1ccc(Cn2nnc(-c3ccc(C4=N[C@H]5CCN(C)C[C@H]5c5cc(OC)c(OC)cc54)cc3)n2)cc1 (single isomer, unassigned) [Compound 7, (-)-cis-8,9-Dimethoxy-2-methyl-6-[[4-[2H-2-(4-methoxybenzyl)tetrazol-5-yl]phenyl]]-1,2,3,4,4a,10b-hexahydrobenzo[c][1,6]naphthyridine hydrochloride]
[1]
  PDE4 -log IC50: 6.74 mol/l
[2]
  IC50: 0.148 µM

## CCOc1cc2c(cc1OCC)[C@@H]1CN(C)CC[C@@H]1N=C2c1ccc(-c2nn[nH]n2)cc1 (single isomer, unassigned) [Compound 17, (-)-cis-8.9-Diethoxy-2-methyl-6-[4-(1H- and 2H-2-tetrazol-5-yl)-phenyl]-1,2,3,4,4a,10b-hexahydrobenzo[c][1.6]naphthyridine]
[1]
  PDE4 -log IC50: 7.44 mol/l
[2]
  IC50: 0.195 µM

## COc1cc2c(cc1OC)[C@@H]1CN(C)CC[C@@H]1N=C2c1ccc(-c2nnn(C)n2)cc1 (single isomer, unassigned) [Compound 4, (-)-cis-8,9-Dimethoxy-2-methyl-6-[4-(2H-2-methyltetrazol-5-yl)phenyl]-1,2,3,4,4a,10b-hexahydrobenzo[c][1,6]naphthyridine]
[1]
  PDE4 -log IC50: 5.92 mol/l
[2]
  IC50: 0.355 µM

## CCOc1cc2c(cc1OCC)[C@@H]1CN(C)CC[C@@H]1N=C2c1ccc(-c2nnn(CC3CCCCC3)n2)cc1 (single isomer, unassigned) [Compound 8, (-)-cis-8,9-Diethoxy-2-methyl-6-[4-(2H-2-cyclohexylmethyltetrazol-5-yl)phenyl]-1,2,3,4,4a,10b-hexahydrobenzo[c][1,6]naphthyridine hydrochloride]
[1]
  PDE4 -log IC50: 7.64 mol/l
[2]
  IC50: 0.309 µM

## COc1cc2c(cc1OC)[C@@H]1CN(C)CC[C@@H]1N=C2c1ccc(-c2nn[nH]n2)cc1 (single isomer, unassigned) [Compound 1, (-)-cis-8,9-Dimethoxy-2-methyl-6-[4-(1H- and 2H-tetrazol-5-yl)phenyl]-1,2,3,4,4a,10b-hexahydrobenzo[c][1,6]naphthyridine]
[1]
  PDE4 -log IC50: 6.42 mol/l
[2]
  IC50: 0.166 µM

## CCCCCCn1nnc(-c2ccc(C3=N[C@H]4CCN(C)C[C@H]4c4cc(OCC)c(OC)cc43)cc2)n1 (single isomer, unassigned) [Compound 15, (-)-cis-9-Ethoxy-8-methoxy-2-methyl-6-[4-(2H-2-hexyltetrazol-5-yl)-phenyl]-1,2,3,4,4a,10-hexahydrobenzo[c][1.6]naphthyridine hydrochloride]
[1]
  PDE4 -log IC50: 8.24 mol/l
[2]
  IC50: 0.631 µM

## CCOc1cc2c(cc1OCC)[C@@H]1CN(C)CC[C@@H]1N=C2c1cccc(-c2nnn(CC)n2)c1 (single isomer, unassigned) [Compound 11, (-)-cis-8,9-Diethoxy-2-methyl-6-[3-(2H-2-ethyltetrazol-5-yl)-phenyl]-1,2,3,4,4a,10b-hexahydrobenzo[c][1,6]naphthyridine hydrochloride]
[1]
  PDE4 -log IC50: 7.40 mol/l
[2]
  PDE3 -log IC50: 5.66 mol/l

## CCOc1cc2c(cc1OCC)[C@@H]1CN(C)CC[C@@H]1N=C2c1ccc(-c2nnn(Cc3ccc(OC)cc3)n2)cc1 (single isomer, unassigned) [Compound 5, (-)-cis-8,9-Diethoxy-2-methyl-6-[[4-[2H-2-(4-methoxybenzyl)tetrazol-5-yl]-phenyl]]-1,2,3,4,4a,10b-hexahydrobenzo[c][1,6]naphthyridine hydrochloride]
[1]
  PDE4 -log IC50: 8.03 mol/l
[2]
  IC50: 0.204 µM

## CCOc1cc2c(cc1OCC)[C@@H]1CN(C)CC[C@@H]1N=C2c1ccc(-c2nnn(CC)n2)cc1 (single isomer, unassigned) [Compound 3, (-)-cis-8,9-Diethoxy-2-methyl-6-[4-(2H-2-ethyltetrazol-5-yl)phenyl]-1,2,3,4,4a,10b-hexahydrobenzo[c][1,6]naphthyridine hydrochloride]
[1]
  PDE4 -log IC50: 7.64 mol/l
[2]
  IC50: 0.209 µM

## CCn1nnc(-c2ccc(C3=N[C@H]4CCN(C)C[C@H]4c4cc(OC)c(OC)cc43)cc2)n1 (single isomer, unassigned) [Compound 2, (-)-cis-8,9-Dimethoxy-2-methyl-6-[4-(2H-2-ethyltetrazol-5-yl)phenyl]-1,2,3,4,4a,10b-hexahydrobenzo[c][1,6]naphthyridine hydrochloride]
[1]
  PDE4 -log IC50: 6.13 mol/l
[2]
  IC50: 0.457 µM

## CCOc1cc2c(cc1OC)[C@@H]1CN(C)CC[C@@H]1N=C2c1ccc(-c2nnn(CC)n2)cc1 (single isomer, unassigned) [Compound 10, (-)-cis-8-Ethoxy-9-methoxy-2-methyl-6-[4-(2H-2-ethyltetrazol-5-yl)-phenyl]-1,2,3,4,4a,10b-hexahydrobenzo[c][1.6]naphthyridine hydrochloride]
[1]
  PDE4 -log IC50: 6.08 mol/l
[2]
  IC50: 0.275 µM

## CCCn1nnc(-c2ccc(C3=N[C@H]4CCN(C)C[C@H]4c4cc(OCC)c(OC)cc43)cc2)n1 (single isomer, unassigned) [Compound 16, (-)-cis-9-Ethoxy-8-methoxy-2-6-[4-(2H-2-propyltetrazol-5-yl)-phenyl]-1,2,3,4,4a,10b-hexahydrobenzo[c][1.6]naphthyridine hydrochloride]
[1]
  PDE4 -log IC50: 7.94 mol/l
[2]
  IC50: 0.219 µM

## CCOc1cc2c(cc1OC)C(c1ccc(-c3nnn(CC)n3)cc1)=N[C@H]1CCN(C)C[C@@H]21 (single isomer, unassigned) [Compound 9, (-)-(cis)-9-Ethoxy-8-methoxy-2-methyl-6-[4-(2H-2-ethyltetrazol-5-yl)phenyl]-1,2,3,4,4a,10b-hexahydrobenzo[c][1.6]naphthyridine]
[1]
  PDE4 -log IC50: 7.96 mol/l
[2]
  IC50: 0.148 µM

## CCOc1cc2c(cc1OCC)[C@@H]1CN(C)CC[C@@H]1N=C2c1ccc(-c2nnn(C)n2)cc1 (single isomer, unassigned) [Compound 6, (-)-cis-8,9-Diethoxy-2-methyl-6-[4-(2H-2-methyltetrazol-5-yl)phenyl]-1,2,3,4,4a,10b-hexahydrobenzo[c][1,6]naphthyridine hydrochloride]
[1]
  PDE4 -log IC50: 7.26 mol/l
[2]
  PDE3 -log IC50: 6.52 mol/l

## CCOc1cc2c(cc1OC)C(c1cccc(-c3nnn(CC)n3)c1)=N[C@H]1CCN(C)C[C@@H]21 (single isomer, unassigned) [Compound 12, (-)-cis-9-Ethoxy-8-methoxy-2-methyl-6-[3-(2H-2-ethyltetrazol-5-yl)-phenyl]-1,2,3,4,4a,10b-hexahydrobenzo[c][1.6]naphthyridine hydrochloride]
[1]
  PDE4 -log IC50: 7.82 mol/l
[2]
  IC50: 0.708 µM
